Data as given in ChEMBL document CHEMBL1201862, “PubChem BioAssay data set” (2004).
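Growth conditions: 96-well plates. Treatment: test compound, 48 hours, 5 concentrations. Analysis: linear interpolation between bracketing concentrations; unreached endpoints set to highest concentration. GI50: concentration for 50% inhibition of growth.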 Active and inactive are the calls of the source. Rule as the data show it: active = GI50 up to about 1.1 µM and inactive = higher.

Tests used:
Assay in all cases: growth of human tumour cells (NCI), 48 h
SF-268 = test system: SF-268
NCI-H226 = test system: NCI-H226
OVCAR-5 = test system: OVCAR-5
NCI-H23 = test system: NCI-H23
RXF 631 = test system: RXF 631
SNB-78 = test system: SNB-78
SK-OV-3 = test system: SK-OV-3
HOP-62 = test system: HOP-62
HOP-92 = test system: HOP-92
NCI-H460 = test system: NCI-H460
UACC-257 = test system: UACC-257
A498 = test system: A498
SF-295 = test system: SF-295
K562 = test system: K562
SK-MEL-2 = test system: SK-MEL-2
RXF 393 = test system: RXF 393
MOLT-4 = test system: MOLT-4
HCC 2998 = test system: HCC 2998
LOX IMVI = test system: LOX IMVI
OVCAR-8 = test system: OVCAR-8
NCI-H522 = test system: NCI-H522
IGROV-1 = test system: IGROV-1
CAKI-1 = test system: CAKI-1
KM12 = test system: KM12
TK-10 = test system: TK-10
HCT-116 = test system: HCT-116
SF-539 = test system: SF-539
DMS-273 = test system: DMS-273
SK-MEL-28 = test system: SK-MEL-28
COLO 205 = test system: COLO 205
ACHN = test system: ACHN
U-251 = test system: U-251
HT-29 = test system: HT-29
XF498 = test system: XF498
SNB-19 = test system: SNB-19
SW-620 = test system: SW-620
CCRF-CEM = test system: CCRF-CEM
A549 = test system: A549
SR = test system: SR
HOP-18 = test system: HOP-18
M19-MEL = test system: M19-MEL
EKVX = test system: EKVX
Malme-3M = test system: Malme-3M
KM-20L2 = test system: KM-20L2
786-0 = test system: 786-0
LXFL 529 = test system: LXFL 529
OVCAR-4 = test system: OVCAR-4
HL-60 = test system: HL-60
SN12C = test system: SN12C
UO-31 = test system: UO-31
RPMI-8226 = test system: RPMI-8226
SK-MEL-5 = test system: SK-MEL-5
OVCAR-3 = test system: OVCAR-3
UACC-62 = test system: UACC-62
HCT-15 = test system: HCT-15
SNB-75 = test system: SNB-75
M14 = test system: M14
DLD-1 = test system: DLD-1
DMS-114 = test system: DMS-114

Measured: GI50

COC(=O)C1C(C(=O)OC)C2C(=O)C3C(C(=O)OC)C(C(=O)OC)C3C(=O)C12 (stereo unspecified)
inactive: SF-268 > 100 µM | NCI-H226 > 100 µM | OVCAR-5 > 100 µM | NCI-H23 > 100 µM | RXF 631 > 100 µM | SNB-78 64.3 µM | SK-OV-3 > 100 µM | HOP-62 > 100 µM | HOP-92 73.5 µM | NCI-H460 > 100 µM | UACC-257 > 100 µM | A498 > 100 µM | SF-295 > 100 µM | K562 > 100 µM | SK-MEL-2 > 100 µM | RXF 393 25.4 µM | MOLT-4 > 100 µM | HCC 2998 > 100 µM | LOX IMVI > 100 µM | OVCAR-8 > 100 µM | NCI-H522 > 100 µM | IGROV-1 > 100 µM | CAKI-1 > 100 µM | KM12 > 100 µM | TK-10 > 100 µM | HCT-116 > 100 µM | SF-539 > 100 µM | DMS-273 > 100 µM | SK-MEL-28 > 100 µM | COLO 205 > 100 µM | ACHN > 100 µM | U-251 > 100 µM | HT-29 > 100 µM | XF498 > 100 µM | SNB-19 > 100 µM | SW-620 > 100 µM | CCRF-CEM > 100 µM | A549 > 100 µM | SR > 100 µM | HOP-18 > 100 µM | M19-MEL > 100 µM | EKVX > 100 µM | Malme-3M > 100 µM | KM-20L2 > 100 µM | 786-0 > 100 µM | LXFL 529 > 100 µM | OVCAR-4 > 100 µM | HL-60 > 100 µM | SN12C > 100 µM

CC(=O)/C=C\C(=O)NNS(=O)(=O)c1ccc(C)cc1
inactive: SF-268 > 100 µM | NCI-H226 > 100 µM | OVCAR-5 > 100 µM | UO-31 > 100 µM | NCI-H23 > 100 µM | RXF 631 > 100 µM | SNB-78 > 100 µM | SK-OV-3 > 100 µM | HOP-62 > 100 µM | HOP-92 > 100 µM | NCI-H460 > 100 µM | UACC-257 > 100 µM | A498 > 100 µM | SF-295 > 100 µM | K562 > 100 µM | SK-MEL-2 > 100 µM | RXF 393 > 100 µM | MOLT-4 > 100 µM | HCC 2998 > 100 µM | LOX IMVI > 100 µM | OVCAR-8 > 100 µM | NCI-H522 > 100 µM | IGROV-1 > 100 µM | CAKI-1 > 100 µM | KM12 > 100 µM | RPMI-8226 > 100 µM | SK-MEL-5 > 100 µM | OVCAR-3 > 100 µM | TK-10 > 100 µM | HCT-116 > 100 µM | SF-539 > 100 µM | DMS-273 > 100 µM | SK-MEL-28 > 100 µM | COLO 205 > 100 µM | ACHN > 100 µM | U-251 > 100 µM | HT-29 > 100 µM | UACC-62 > 100 µM | XF498 > 100 µM | SNB-19 > 100 µM | SW-620 > 100 µM | CCRF-CEM > 100 µM | A549 > 100 µM | SR > 100 µM | M19-MEL > 100 µM | EKVX > 100 µM | Malme-3M > 100 µM | KM-20L2 > 100 µM | 786-0 > 100 µM | LXFL 529 > 100 µM | SNB-75 > 100 µM | OVCAR-4 > 100 µM | HL-60 > 100 µM | M14 > 100 µM | SN12C > 100 µM | DLD-1 > 100 µM
> 100 µM: HCT-15

BrC/C=C/C[P+](c1ccccc1)(c1ccccc1)c1ccccc1
inactive: SF-268 15.7 µM | OVCAR-5 31 µM | UO-31 34.2 µM | NCI-H23 32.3 µM | RXF 631 > 100 µM | SNB-78 21 µM | SK-OV-3 86.5 µM | HOP-62 19.6 µM | HOP-92 11.7 µM | NCI-H460 7.46 µM | UACC-257 8.57 µM | SF-295 13.1 µM | K562 2.43 µM | SK-MEL-2 10.8 µM | MOLT-4 > 100 µM | HCC 2998 35.2 µM | LOX IMVI 10.4 µM | OVCAR-8 3.91 µM | NCI-H522 12.4 µM | DMS-114 27.5 µM | IGROV-1 55.5 µM | KM12 4.29 µM | SK-MEL-5 11.1 µM | OVCAR-3 7.28 µM | TK-10 11.6 µM | HCT-116 3.97 µM | SF-539 1.52 µM | DMS-273 2.44 µM | SK-MEL-28 33.3 µM | COLO 205 4.53 µM | ACHN 12.2 µM | U-251 24 µM | UACC-62 9.04 µM | XF498 11.1 µM | SNB-19 21.3 µM | SW-620 6.52 µM | CCRF-CEM > 100 µM | A549 7.87 µM | HOP-18 67 µM | M19-MEL 10.8 µM | Malme-3M 12.4 µM | KM-20L2 27.2 µM | 786-0 10.3 µM | LXFL 529 1.7 µM | SNB-75 19.8 µM | OVCAR-4 41.1 µM | HL-60 2.54 µM | M14 13.7 µM | SN12C 19.5 µM
active: RPMI-8226 0.927 µM
